Test results published in paper PMC9635925, “Biological screening of a unique drug library targeting MRGPRX2” (Frontiers in Immunology, 2022).
Positions count from the first letter of the chain named. Where a name gives a salt, the structure may show the parent alone.

Key:
[1] = target: T1, MRGPRX2-MUT (MRGPRX2 N62S mutation) (Homo sapiens, UniProt Q96LB1, N62S); test: Primary HTS, Ca2+ mobilization (fluorescence ratio, B-score) in HEK293-Gα15 cells stably expressing the MRGPRX2 N62S mutation; assay type: cell-based; conditions: for B-scores (MUT): 10 μM compound, MRGPRX2-MUT (N62S) cells; for Change of B-scores (%): 10 μM
T1 construct: expressed in transfected cells
T1 sequence (Q96LB1 1-330 N62S): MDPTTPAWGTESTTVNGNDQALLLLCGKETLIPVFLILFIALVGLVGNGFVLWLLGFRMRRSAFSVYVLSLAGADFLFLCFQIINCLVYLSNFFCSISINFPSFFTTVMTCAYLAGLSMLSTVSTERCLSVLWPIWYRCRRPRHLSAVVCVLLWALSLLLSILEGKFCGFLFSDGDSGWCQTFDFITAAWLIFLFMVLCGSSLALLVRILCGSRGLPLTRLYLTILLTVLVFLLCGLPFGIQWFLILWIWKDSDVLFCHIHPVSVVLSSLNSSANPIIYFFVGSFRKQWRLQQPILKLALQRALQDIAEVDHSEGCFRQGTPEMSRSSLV
Method: (§1) We performed an experimental HTS on the Johns Hopkins Drug Library, which includes 1,811 (57%) FDA-approved drugs among 3,456 total compounds (28% of all known drugs worldwide) ([15]). We performed the HTS at the Johns Hopkins University ChemBioCORE Facility and employed HEK293-Gα15 cell lines that stably expressed MRGPRX2 protein.
(§2) We utilized 10 μM compounds (each compound was tested in triplicate) and calculated the compound effect using the signal-to-background fluorescence ratio (see Supplementary Methods).
(§3) In the HTS, we determined MRGPRX2 activation by a Ca^2+ mobilization assay that recorded a fluorescence change by utilizing a Functional Drug Screening System (FDSS 6000; Hamamatsu); we evaluated the compound effect using the calculated fluorescence ratio. We further applied the B-score normalization, which provided robust corrections for variation in fluorescence ratio ([22]).
(§4) We performed an experimental high-throughput screening (HTS) on the Johns Hopkins Drug Library (JHDL), which includes 1,811 (57%) FDA-approved drugs among 3,456 total compounds (28% of all known drugs worldwide). The remaining compounds in JHDL are catalogued in one or more of the resources below: British Approved Names (BAN); Dénominations Communes Françaises (DCF); International Nonproprietary Names (INN); Japanese Adopted Names (JAN); MI (Merck Index); National Formulary drug name (NF); and United States Accepted Names (USAN). The JHU drug library is stocked in 96 well plates at 10 mM in 100% DMSO and stored at -80 °C. We used a final concentration of 10 uM for each compound and DMSO concentration of 0.1% (tested in triplicate). […] We evaluated compound effect using the calculated fluorescence ratio. We further calculated B-scores, which are a relative potency score similar to Z scores in that they are the ratio of an adjusted raw value in the numerator to a measure of variability in the denominator.

[2] = target: T2, MRGPRX2-WT (wild-type MRGPRX2 receptor) (Homo sapiens, UniProt Q96LB1); test: Primary HTS, Ca2+ mobilization (fluorescence ratio, B-score) in HEK293-Gα15 cells stably expressing wild-type MRGPRX2; assay type: cell-based; conditions: 10 μM compound
T2 construct: expressed in transfected cells
T2 sequence (Q96LB1 1-330): T1 sequence (Q96LB1 1-330 N62S) with S62N
Method: as §1, §2, §3, §4

[3] = MRGPRX2-MUT in comparison to MRGPRX2-WT cells, Supplementary Table 1
[4] = MRGPRX2-MUT versus MRGPRX2-WT cells, Supplementary Table 2
[5] = MRGPRX2-MUT in comparison to MRGPRX2-WT cells, Table 1

Compound	B-scores (MUT) ([1]; Supplementary Table 1)	B-scores (MUT) ([1]; Supplementary Table 2)	Change of B-scores (%) [1, 3]	Change of B-scores (%) [1, 4]	B-scores (WT) ([2]; Supplementary Table 1)	B-scores (WT) ([2]; Supplementary Table 2)	B-scores (MUT) ([1]; Table 1)	Change of B-scores (%) [1, 5]	B-scores (WT) ([2]; Table 1)
CC(=O)c1ccc2c(c1)N(CCCN(C)C)c1ccccc1S2 [Acepromazine Maleate]	28.97	28.97	-34.19%	-34.19%	44.01	44.01			
CC(=O)c1ccc2c(c1)N(CCCN(C)C)c1ccccc1S2 [Acepromazine]		43.26		88.18%		22.99			
CC(=O)OCC[N+](C)(C)C [Acetylcholine Chloride]	65.23	65.23	38.45%	38.45%	47.11	47.11			
CC(=O)OCC[N+](C)(C)C [Acetylcholine]	80.61	80.61	245.01%	245.01%	23.36	23.36			
Nc1ncnc2c1ncn2[C@@H]1O[C@H](CO)[C@@H](O)[C@H]1O [Adenosine]	0.32		-99.09%		35.61				
CC(C)(C)NCC(O)c1ccc(O)c(CO)c1.CC(C)(C)NCC(O)c1ccc(O)c(CO)c1.O=S(=O)(O)O (stereo not drawn) [Albuterol sulfate]		2.96		-75.51%		12.09			
CCCCC(CC)CNC(=N)NC(=N)NCCCCCCNC(=N)NC(=N)NCC(CC)CCCC (stereo not drawn) [Alexidine Hydrochloride]	1.68		-94.54%		30.77		1.68	-94.54%	30.77
CN(C)CCc1c[nH]c2ccc(CS(=O)(=O)N3CCCC3)cc12 [Almotriptan]	2.98		-83.88%		18.49				
CCCCC[C@H](O)/C=C/[C@H]1[C@H](O)CC(=O)[C@@H]1CCCCCCC(=O)O [Alprostadil]	11.08		-73.65%		42.04				
CN(C)CCC=C1c2ccccc2CCc2ccccc21 [Amitriptyline hydrochloride]		1.83		-88.77%		16.31			
CCOC(=O)C1=C(COCCN)NC(C)=C(C(=O)OC)C1c1ccccc1Cl (stereo not drawn) [Amlodipine Besylate]	3.87		-87.76%		31.57				
COC(=O)C1=CCCN(C)C1 [Arecoline Hydrobromide]	58.08		101.79%		28.78				
CN1[C@@H]2CC[C@H]1C[C@@H](OC(=O)C(CO)c1ccccc1)C2 (stereo partly drawn) [Atropine Sulfate Monohydrate]	0.90	0.9	-96.27%	-96.27%	24.16	24.16			
CN1[C@@H]2CC[C@H]1C[C@@H](OC(=O)C(CO)c1ccccc1)C2 (stereo partly drawn) [Atropine Sulfate]		-0.13	-100.31%	-100.31%	41.43	41.43			
CN1[C@@H]2CC[C@H]1C[C@@H](OC(=O)C(CO)c1ccccc1)C2 (stereo partly drawn) [Atropine]		-0.95	-105.08%	-105.08%	18.59	18.59			
CN1CCCC(n2nc(Cc3ccc(Cl)cc3)c3ccccc3c2=O)CC1 (stereo not drawn) [Azelastine Hydrochloride]	3.47		-90.42%		36.21		3.47	-90.42%	36.21
CN1[C@@H]2CC[C@H]1C[C@@H](OC(c1ccccc1)c1ccccc1)C2 [Benztropine Methanesulfonate]	2.81		-89.29%		26.25				
CN1[C@@H]2CC[C@H]1C[C@@H](OC(c1ccccc1)c1ccccc1)C2 [Benztropine]	1.35		-93.68%		21.42				
CC(C[N+](C)(C)C)OC(N)=O (stereo not drawn) [Bethanechol Chloride]	37.55		94.89%		19.27				
CN(C)CCOC(c1ccccc1)c1ccc(Br)cc1.Cl (stereo not drawn) [Bromazine hydrochloride]		-0.05		-100.41%		11.37			
CN(C)CCC(c1ccc(Br)cc1)c1ccccn1 (stereo not drawn) [Brompheniramine]	0.64	0.64	-96.48%	-96.48%	18.22	18.22	0.64	-96.48%	18.22
C[N+](C)(C)CCOC(N)=O [Carbachol]	63.57	63.57	49.41%	49.41%	42.55	42.55			
CN(C)CCOC(c1ccc(Cl)cc1)c1ccccn1 (stereo not drawn) [Carbinoxamine Maleate]	1.49	1.49	-96.18%	-94.84%	38.93		1.49	-96.18%	38.93
CN(C)CCOC(c1ccc(Cl)cc1)c1ccccn1 (stereo not drawn) [Carbinoxamine]		0.12		-98.93%		11.13			
CC(=O)O.CC(=O)O.CC[C@H](C)C[C@H](C)CCCCCCCCC(=O)N[C@H]1C[C@@H](O)[C@@H](NCCN)NC(=O)[C@@H]2[C@@H](O)CCN2C(=O)[C@H]([C@H](O)CCN)NC(=O)[C@H]([C@H](O)[C@@H](O)c2ccc(O)cc2)NC(=O)[C@@H]2C[C@@H](O)CN2C(=O)[C@H]([C@@H](C)O)NC1=O [Caspofungin acetate]	16.90		-43.63%		29.98				
COc1ccc2cc1Oc1ccc(cc1)C[C@H]1c3c(cc4c(c3Oc3cc5c(cc3OC)CCN(C)[C@@H]5C2)OCO4)CCN1C [Cepharanthine]	1.14		-94.20%		19.73		1.14	-94.20%	19.73
CN(C)CCN(Cc1ccc(Cl)cc1)c1ccccn1.Cl [Chloropyramine Hydrochloride]		3.24		-77.83%		14.6			
CN(C)CCC(c1ccc(Cl)cc1)c1ccccn1 (stereo not drawn) [Chlorpheniramine]		0.88		-90.88%		9.6			
CN(C)CCCN1c2ccccc2Sc2ccc(Cl)cc21 [Chlorpromazine Hydrochloride]		2.69		-66.27%		7.97			
CN(C)CCCN1c2ccccc2Sc2ccc(Cl)cc21 [Chlorpromazine]		-0.05		-100.54%		10.2			
